Like-named read-outs stand apart in the source and are kept apart here.
Columns and labels:
[1] = tested on: SETVI: green foxtail (Setaria viridis); test: Post-emergent Test III, herbicidal activity in wheat and barley; type: in vivo; conditions: Table 9, 21 d; for pest or weed control at 35 g/ha / pest or weed control at 70 g/ha / pest or weed control at 140 g/ha: Setaria viridis, post-emergence, 504 h, post-emergent, read-out: Visual Growth Reduction (%) 21 Days After Application SETVI; for pest or weed control at 35 g/ha: 35 g ai/ha; for pest or weed control at 70 g/ha: 70 g ai/ha; for GR50 SETVI: dose for 50 percent growth reduction; for GR50 SETVI / GR80 SETVI: probit analysis; for GR80 SETVI: dose for 80 percent growth reduction; for pest or weed control at 140 g/ha: 140 g ai/ha
Outline: (§1)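 GR20, GR50, GR80 and GR90 come from probit analysis of visual injury scores (0 = none, 100 = complete kill) taken 21 d after treatment. Foliar application was by track sprayer delivering 187 L/ha at five rates, from high down to 1/16×, onto greenhouse plants at the 2–3 leaf stage, with solvent-blank controls.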

[2] = tested on: HORSS: barley, including spring and winter (Hordeum vulgare); test: as above; type: in vivo; conditions: Table 9, 21 d; for pest or weed control at 35 g/ha / pest or weed control at 70 g/ha / pest or weed control at 140 g/ha: Hordeum vulgare, post-emergence, 504 h, post-emergent, read-out: Visual Growth Reduction (%) 21 Days After Application HORSS; for pest or weed control at 35 g/ha: 35 g ai/ha; for pest or weed control at 70 g/ha: 70 g ai/ha; for GR20 HORSS: dose for 20 percent growth reduction, probit analysis; for pest or weed control at 140 g/ha: 140 g ai/ha
Outline: as §1

[3] = tested on: TRZSS: wheat, including spring and winter (Triticum aestivum); test: as above; type: in vivo; conditions: Table 9, 21 d; for GR20 TRZSS: dose for 20 percent growth reduction, probit analysis; for pest or weed control at 35 g/ha / pest or weed control at 70 g/ha / pest or weed control at 140 g/ha: Triticum aestivum, post-emergence, 504 h, post-emergent, read-out: Visual Growth Reduction (%) 21 Days After Application TRZSS; for pest or weed control at 35 g/ha: 35 g ai/ha; for pest or weed control at 70 g/ha: 70 g ai/ha; for pest or weed control at 140 g/ha: 140 g ai/ha
Outline: as §1

[4] = tested on: LOLSS: ryegrass including, Italian ryegrass (Lolium multiflorum), rigid ryegrass (Lolium rigidum), annual ryegrass (Lolium multiflorum subsp. Gaudini); test: as above; type: in vivo; conditions: probit analysis
Outline: as §1

[5] = as above; type: in vivo, Lolium multiflorum, Lolium rigidum; conditions: Lolium multiflorum, post-emergence, 504 h, read-out: Visual Growth Reduction (%) 21 Days After Application LOLSS; for pest or weed control at 35 g/ha: 35 g ai/ha; for pest or weed control at 70 g/ha: 70 g ai/ha; for pest or weed control at 140 g/ha: 140 g ai/ha
Outline: as §1

[6] = tested on: KCHSC: kochia (Kochia scoparia); test: as above; type: in vivo; conditions: for pest or weed control at 35 g/ha / pest or weed control at 70 g/ha / pest or weed control at 140 g/ha: Bassia scoparia, post-emergence, 504 h, read-out: Visual Growth Reduction (%) 21 Days After Application KCHSC; for pest or weed control at 35 g/ha: 35 g ai/ha; for pest or weed control at 70 g/ha: 70 g ai/ha; for GR50 KCHSC / GR80 KCHSC: probit analysis; for pest or weed control at 140 g/ha: 140 g ai/ha
Outline: as §1

LAMSS = test: as above; type: in vivo
Outline: as §1

[7] = tested on: MATSS: scented mayweed (Matricaria chamomilla), pineappleweed (Matricaria matricarioides); test: as above; type: in vivo
Outline: as §1

[8] = Table 9, dose for 50 percent growth reduction, 21 d
[9] = Table 9, dose for 80 percent growth reduction, 21 d
[10] = probit analysis, dose for growth reduction of 50 percent, 21 days after application
[11] = probit analysis, dose for growth reduction of 80 percent, 21 days after application
[12] = dose for growth reduction of 50 percent, 21 days after application
[13] = dose for growth reduction of 80 percent, 21 days after application

C#Cc1ccc(-c2nc(N)c(OC)c(C(=O)O)n2)cc1 [Compound 28]
pest or weed control at 35 g/ha [1]: 0 to 29%
pest or weed control at 70 g/ha [1]: 0 to 29%
GR50 SETVI [1]: >140 g ai/ha
GR80 SETVI [1]: >140 g ai/ha
pest or weed control at 35 g/ha [2]: 0 to 29%
pest or weed control at 70 g/ha [2]: 30 to 44%
GR20 HORSS [2]: 43 g ai/ha
GR20 TRZSS [3]: 17 g ai/ha
pest or weed control at 35 g/ha [3]: 30 to 44%
pest or weed control at 70 g/ha [3]: 60 to 74%
GR50 LOLSS [4, 8]: >140 g ai/ha
GR80 LOLSS [4, 9]: >140 g ai/ha
pest or weed control at 35 g/ha ([5]; Table 9, post-emergent, 21 d): 0 to 29%
pest or weed control at 70 g/ha ([5]; Table 9, post-emergent, 21 d): 0 to 29%
pest or weed control at 35 g/ha ([6]; Table 9, post-emergent, 21 d): 0 to 29%
pest or weed control at 70 g/ha ([6]; Table 9, post-emergent, 21 d): 30 to 44%
GR50 KCHSC [6, 8]: 88 g ai/ha
GR80 KCHSC [6, 9]: >140 g ai/ha

COC(=O)c1nc(-c2ccc(F)c(F)c2F)c(F)c(N)c1Cl [Compound 186]
pest or weed control at 35 g/ha (LAMSS; post-emergence, 504 h, 35 g ai/ha, read-out: Visual Growth Reduction (%) 21 Days After Application LAMSS): 75 to 84%
pest or weed control at 70 g/ha (LAMSS; post-emergence, 504 h, 70 g ai/ha, read-out: Visual Growth Reduction (%) 21 Days After Application LAMSS): 85 to 94%
pest or weed control at 140 g/ha (LAMSS; post-emergence, 504 h, 140 g ai/ha, read-out: Visual Growth Reduction (%) 21 Days After Application LAMSS): 85 to 94%
GR50 LAMSS (LAMSS; [10]): 1 g ai/ha
GR80 LAMSS (LAMSS; [11]): 25 g ai/ha
GR50 LOLSS [4, 12]: >140 g ai/ha
GR80 LOLSS [4, 13]: >140 g ai/ha
pest or weed control at 35 g/ha [5]: 0 to 29%
pest or weed control at 70 g/ha [5]: 0 to 29%
pest or weed control at 140 g/ha [5]: 0 to 29%
pest or weed control at 35 g/ha [6]: 60 to 74%
pest or weed control at 70 g/ha [6]: 60 to 74%
pest or weed control at 140 g/ha [6]: 60 to 74%
GR50 KCHSC [6, 12]: 1 g ai/ha
GR80 KCHSC [6, 13]: >140 g ai/ha
pest or weed control at 35 g/ha ([7]; Matricaria chamomilla, post-emergence, 504 h, 35 g ai/ha, read-out: Visual Growth Reduction (%) 21 Days After Application MATSS): 0 to 29%
pest or weed control at 70 g/ha ([7]; Matricaria chamomilla, post-emergence, 504 h, 70 g ai/ha, read-out: Visual Growth Reduction (%) 21 Days After Application MATSS): 0 to 29%
pest or weed control at 140 g/ha ([7]; Matricaria chamomilla, post-emergence, 504 h, 140 g ai/ha, read-out: Visual Growth Reduction (%) 21 Days After Application MATSS): 0 to 29%
GR50 MATSS [7, 10]: >140 g ai/ha
GR80 MATSS [7, 11]: >140 g ai/ha

COc1c(N)nc(-c2ccc(Br)cc2F)nc1C(=O)O [Compound 46]
pest or weed control at 35 g/ha [1]: 0 to 29%
pest or weed control at 70 g/ha [1]: 30 to 44%
pest or weed control at 140 g/ha [1]: 30 to 44%
GR50 SETVI [1]: >140 g ai/ha
GR80 SETVI [1]: >140 g ai/ha
pest or weed control at 35 g/ha [2]: 60 to 74%
pest or weed control at 70 g/ha [2]: 60 to 74%
pest or weed control at 140 g/ha [2]: 85 to 94%
GR20 HORSS [2]: 8 g ai/ha
GR20 TRZSS [3]: 1 g ai/ha
pest or weed control at 35 g/ha [3]: 75 to 84%
pest or weed control at 70 g/ha [3]: 75 to 84%
pest or weed control at 140 g/ha [3]: 85 to 94%
GR50 LOLSS [4, 8]: 118 g ai/ha
GR80 LOLSS [4, 9]: >140 g ai/ha
pest or weed control at 35 g/ha ([5]; Table 9, post-emergent, 21 d): 0 to 29%
pest or weed control at 70 g/ha ([5]; Table 9, post-emergent, 21 d): 30 to 44%
pest or weed control at 140 g/ha ([5]; Table 9, post-emergent, 21 d): 45 to 59%
pest or weed control at 35 g/ha ([6]; Table 9, post-emergent, 21 d): 75 to 84%
pest or weed control at 70 g/ha ([6]; Table 9, post-emergent, 21 d): 85 to 94%
pest or weed control at 140 g/ha ([6]; Table 9, post-emergent, 21 d): 85 to 94%
GR50 KCHSC [6, 8]: 10 g ai/ha
GR80 KCHSC [6, 9]: 45 g ai/ha

COC(=O)c1nc(-c2ccc(Br)cc2F)nc(N)c1OC [Compound 35]
pest or weed control at 35 g/ha [1]: 0 to 29%
pest or weed control at 70 g/ha [1]: 30 to 44%
GR50 SETVI [1]: 79 g ai/ha
GR80 SETVI [1]: >140 g ai/ha
pest or weed control at 35 g/ha [2]: 60 to 74%
pest or weed control at 70 g/ha [2]: 60 to 74%
GR20 HORSS [2]: 8 g ai/ha
GR20 TRZSS [3]: 2 g ai/ha
pest or weed control at 35 g/ha [3]: 75 to 84%
pest or weed control at 70 g/ha [3]: 75 to 84%
GR50 LOLSS [4, 8]: 126 g ai/ha
GR80 LOLSS [4, 9]: >140 g ai/ha
pest or weed control at 35 g/ha ([5]; Table 9, post-emergent, 21 d): 0 to 29%
pest or weed control at 70 g/ha ([5]; Table 9, post-emergent, 21 d): 30 to 44%
pest or weed control at 35 g/ha ([6]; Table 9, post-emergent, 21 d): 75 to 84%
pest or weed control at 70 g/ha ([6]; Table 9, post-emergent, 21 d): 85 to 94%
GR50 KCHSC [6, 8]: 8 g ai/ha
GR80 KCHSC [6, 9]: 37 g ai/ha

C#Cc1ccc(-c2nc(N)c(OC)c(C(=O)O)n2)c(F)c1F [Compound 154]
pest or weed control at 35 g/ha [1]: 30 to 44%
pest or weed control at 70 g/ha [1]: 60 to 74%
pest or weed control at 140 g/ha [1]: 75 to 84%
GR50 SETVI [1]: 56 g ai/ha
GR80 SETVI [1]: 109 g ai/ha
pest or weed control at 35 g/ha [2]: 0 to 29%
pest or weed control at 70 g/ha [2]: 0 to 29%
pest or weed control at 140 g/ha [2]: 45 to 59%
GR20 HORSS [2]: 81 g ai/ha
GR20 TRZSS [3]: 49 g ai/ha
pest or weed control at 35 g/ha [3]: 0 to 29%
pest or weed control at 70 g/ha [3]: 30 to 44%
pest or weed control at 140 g/ha [3]: 45 to 59%
GR50 LOLSS [4, 8]: >140 g ai/ha
GR80 LOLSS [4, 9]: >140 g ai/ha
pest or weed control at 35 g/ha ([5]; Table 9, post-emergent, 21 d): 0 to 29%
pest or weed control at 70 g/ha ([5]; Table 9, post-emergent, 21 d): 0 to 29%
pest or weed control at 140 g/ha ([5]; Table 9, post-emergent, 21 d): 0 to 29%
pest or weed control at 35 g/ha ([6]; Table 9, post-emergent, 21 d): 0 to 29%
pest or weed control at 70 g/ha ([6]; Table 9, post-emergent, 21 d): 0 to 29%
pest or weed control at 140 g/ha ([6]; Table 9, post-emergent, 21 d): 0 to 29%
GR50 KCHSC [6, 8]: 57 g ai/ha
GR80 KCHSC [6, 9]: 93 g ai/ha

— patent publication US9113629B2, “4-amino-6-(4-substituted-phenyl)-picolinates and 6-amino-2-(4-substituted-phenyl)-pyrimidine-4-carboxylates and their use as herbicides” (DOW AGROSCIENCES LLC, priority 2013, dated 2015)
